Reference: patent EP4000400A1, “HERBICIDE COMBINATION COMPRISING GLUFOSINATE, SA[…] TRIFLUDIMOXAZIN” (BASF SE, priority 2020, dated 2022)

Tests used:
LAMAM = assay: Post-emergence weed control, field (Example 3), percent injury 17 DAT; format: in vivo, Lamium amplexicaule
Source text: (§1) The herbicide compounds applied in the examples were used as experimental or commercially available solo or premix formulations which have been diluted with tap water to a suitable concentration. Glufosinate was used as a commercial SL formulation containing 280 g ai/I of glufosinate (Liberty 280 SL, BASF). While the PPO herbicides saflufenacil and trifludimoxazin were used as solo (saflufenacil - Sharpen/Heat herbicide 342 SC, BASF, or trifludimoxazin - Vulcarus 500 SC, BASF), or a premix of saflufenacil + trifludimoxazin as a 250 + 125 g ai/I SC formulation.
(§2) The evaluation for plant injury or damage caused by the chemical compositions was carried out using a scale from 0 - 100% when compared with the untreated control plants. Here, 0 means no damage and 100 means complete destruction of the plants.
(§3) A natural field population of common chickweed (Stellaria media; STEME), purple cudweed (Gnaphalium purpureum; GNAPU), henbit (Lamium amplexicaule; LAMAM), and annual bluegrass (Poa annua; POAAN) were treated with postemergence applications of either glufosinate at 450 or 655 g ai/ha, saflufenacil + trifludimoxazin at 1.7 + 0.8, or 4.2 + 2.1 g ai/ha, or the combination of glufosinate and saflufenacil + trifludimoxazin at 450 and 1.7 + 0.8, or 4.2 + 2.1 g ai/ha, respectively, when they were 7.6 - 15 cm in height. […]

LOLMU = assay: Post-emergence weed control, greenhouse (Example 1), percent injury 14 DAT; format: in vivo; details: Lolium multiflorum, 336 h, Glufosinate 450 g/ha, read-out: Herbicidal action against LOLMU (% activity compared to untreated) Found
Source text: as §1, §2
22., E=X+Y-(X*Y/100), where X = effect in percent using herbicide A at an application rate of a; Y = effect in percent using herbicide B at an application rate of b; E = expected effect (in %) of A + B at application rates a + b.
The value E corresponds to the effect (plant damage or injury) which is to be expected if the activity of the individual compounds is just additive. If the observed effect is higher than the value E calculated according to Colby, a synergistic effect is present. […]

CARPA = assay: Post-emergence weed control, field (Example 2), percent injury 16 DAT; format: in vivo, Cardamine parviflora
Source text: as §1, §2
(§4) A natural field population of small flowered bittercress (Cardamine parviflora; CARPA), cressleaf grounsel (Senecio glabellus; SENGL), cutleaf evening primrose (Oenothera laciniate; OEOLA), and annual bluegrass (Poa annua; POAAN) were treated with postemergence applications of either glufosinate at 450 or 655 g ai/ha, saflufenacil + trifludimoxazin at 1.7 + 0.8, or 4.2 + 2.1 g ai/ha, or the combination of glufosinate and saflufenacil + trifludimoxazin at 450 and 1.7 + 0.8, or 4.2 + 2.1 g ai/ha, respectively, when they were 10 - 25 cm in height. […]

POAAN [1] = assay: Post-emergence weed control, field (Example 3), percent injury 17 DAT; format: in vivo, Poa annua
Source text: as §1, §2, §3

POAAN [2] = assay: Post-emergence weed control, field (Example 2), percent injury 16 DAT; format: in vivo, Poa annua
Source text: as §1, §2, §4

STEME = assay: Post-emergence weed control, field (Example 3), percent injury 17 DAT; format: in vivo, Stellaria media
Source text: as §1, §2, §3

OEOLA = assay: Post-emergence weed control, field (Example 2), percent injury 16 DAT; format: in vivo, Oenothera laciniate
Source text: as §1, §2, §4

GNAPU = assay: Post-emergence weed control, field (Example 3), percent injury 17 DAT; format: in vivo, Gnaphalium purpureum
Source text: as §1, §2, §3

SENGL = assay: Post-emergence weed control, field (Example 2), percent injury 16 DAT; format: in vivo, Senecio glabellus
Source text: as §1, §2, §4

How did the “Mean % Control (17 DAT) LAMAM” value (LAMAM; 450 g ai/ha) turn out when `CP(=O)(O)CCC(N)C(=O)O` (racemic) [Glufosinate, (2RS)-2-amino-4-[hydroxy(methyl)phosphinoyl]butyric acid] was run?
The value was 50.0%.

And the “Mean % Control (17 DAT) LAMAM” value (LAMAM; 655 g ai/ha)?
The value was 82.7%.

And the activity at 450 g/ha (LOLMU)?
Its activity at 450 g/ha is 68.5%.

What about the “Mean % Control (16 DAT) CARPA” value (CARPA; 450 g ai/ha) of the same compound?
The value was 90.7%.

What about the “Mean % Control (16 DAT) CARPA” value (CARPA; 655 g ai/ha) of the same compound?
The value was 95.0%.

What about the “Mean % Control (17 DAT) POAAN” value (POAAN [1]; 450 g ai/ha) of the same compound?
Its value is 66.7%.

What about the “Mean % Control (17 DAT) POAAN” value (POAAN [1]; 655 g ai/ha) of the same compound?
The value was 86.7%.

And the “Mean % Control (16 DAT) POAAN” value (POAAN [2]; 450 g ai/ha)?
The value was 80.0%.

And the “Mean % Control (16 DAT) POAAN” value (POAAN [2]; 655 g ai/ha)?
Its value is 90.7%.

And the “Mean % Control (17 DAT) STEME” value (STEME; 450 g ai/ha)?
Its value is 53.3%.

What about the “Mean % Control (17 DAT) STEME” value (STEME; 655 g ai/ha) of the same compound?
The value was 90.0%.

What about the “Mean % Control (16 DAT) OEOLA” value (OEOLA; 450 g ai/ha) of the same compound?
Its value is 81.7%.

What about the “Mean % Control (16 DAT) OEOLA” value (OEOLA; 655 g ai/ha) of the same compound?
Its value is 92.3%.

And the “Mean % Control (17 DAT) GNAPU” value (GNAPU; 450 g ai/ha)?
Its value is 78.3%.

And the “Mean % Control (17 DAT) GNAPU” value (GNAPU; 655 g ai/ha)?
Its value is 98.7%.

What about the “Mean % Control (16 DAT) SENGL” value (SENGL; 450 g ai/ha) of the same compound?
The value was 80.7%.

And the “Mean % Control (16 DAT) SENGL” value (SENGL; 655 g ai/ha)?
The value was 88.7%.
